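Protocol summary: plate cells (96-well), add compound at 5 concentrations, incubate 48 h, interpolate endpoints linearly. TGI is the concentration that stops growth completely.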
Experiments:
Experiment in all cases: growth of human tumour cells (NCI), 48 h
M14 melanoma = test system: M14 melanoma
ACHN renal = test system: ACHN renal
786-0 renal = test system: 786-0 renal
NCI-H522 lung = test system: NCI-H522 lung
SF-268 CNS = test system: SF-268 CNS
UACC-62 melanoma = test system: UACC-62 melanoma
HCC-2998 colon = test system: HCC-2998 colon
OVCAR-4 ovarian = test system: OVCAR-4 ovarian
NCI-H226 lung = test system: NCI-H226 lung
MDA-N = test system: MDA-N
U251 CNS = test system: U251 CNS
UO-31 renal = test system: UO-31 renal
NCI-H23 lung = test system: NCI-H23 lung
NCI-H460 lung = test system: NCI-H460 lung
A498 renal = test system: A498 renal
KM12 colon = test system: KM12 colon
SNB-19 CNS = test system: SNB-19 CNS
RXF 393 renal = test system: RXF 393 renal
EKVX NSCLC = test system: EKVX NSCLC
OVCAR-8 ovarian = test system: OVCAR-8 ovarian
NCI/ADR-RES ovarian = test system: NCI/ADR-RES ovarian
MDA-MB-231 breast = test system: MDA-MB-231 breast
RPMI-8226 leukemia = test system: RPMI-8226 leukemia
HS 578T breast = test system: HS 578T breast
SW-620 colon = test system: SW-620 colon
HOP-92 NSCLC = test system: HOP-92 NSCLC
SK-MEL-28 melanoma = test system: SK-MEL-28 melanoma
TK-10 renal = test system: TK-10 renal
SK-OV-3 ovarian = test system: SK-OV-3 ovarian
A549 NSCLC = test system: A549 NSCLC
LOX IMVI melanoma = test system: LOX IMVI melanoma
COLO 205 colon = test system: COLO 205 colon
DU-145 prostate = test system: DU-145 prostate
BT-549 breast = test system: BT-549 breast
UACC-257 melanoma = test system: UACC-257 melanoma
SF-295 CNS = test system: SF-295 CNS
SK-MEL-2 melanoma = test system: SK-MEL-2 melanoma
MCF7 breast = test system: MCF7 breast
OVCAR-3 ovarian = test system: OVCAR-3 ovarian
MDA-MB-435 = test system: MDA-MB-435
MOLT-4 leukemia = test system: MOLT-4 leukemia
CAKI-1 renal = test system: CAKI-1 renal
SR leukemia = test system: SR leukemia
HOP-62 NSCLC = test system: HOP-62 NSCLC
SNB-75 CNS = test system: SNB-75 CNS
OVCAR-5 ovarian = test system: OVCAR-5 ovarian
IGROV1 ovarian = test system: IGROV1 ovarian
PC-3 prostate = test system: PC-3 prostate
K-562 leukemia = test system: K-562 leukemia
HCT-116 colon = test system: HCT-116 colon
HCT-15 colon = test system: HCT-15 colon
MALME-3M melanoma = test system: MALME-3M melanoma
SN12C renal = test system: SN12C renal
T-47D breast = test system: T-47D breast
SK-MEL-5 melanoma = test system: SK-MEL-5 melanoma
HT29 colon = test system: HT29 colon
CCRF-CEM leukemia = test system: CCRF-CEM leukemia
HL-60(TB) leukemia = test system: HL-60(TB) leukemia

Measured: TGI

CCOC(=O)[C@@]1(C(C)=O)CC(C)=C(C)C[S@]1=O
not listed: SK-MEL-5 melanoma | HT29 colon | CCRF-CEM leukemia | HL-60(TB) leukemia
> 100 µM: all other assays above

CCOC(=O)[C@@H](NC(=O)OC(C)(C)C)[C@@H](O)C(=O)OCC
not listed: NCI-H522 lung
> 100 µM: all other assays above

From PubChem BioAssay (NCI)
